# Assay results published in US20250249056A1, “CANCER THERAPIES COMPRISING A NUCLEAR EXPORT INHIBITOR AND AN ONCOLYTIC VIRUS” (priority 2022, published 2025).
# Entries after “also recorded” stand apart in the source; their conditions may differ.
# Legend:
# MYXV = assay: Viral replication assay: progeny virus titration on permissive rabbit RK13 cells; format: cell-based, myxoma virus; conditions: PANC-1, Colo205, and MDA-MB435; selinexor; 24, 48, 72 h
# Procedure: Viral titers in different human cancer cell lines were determined using a viral replication assay. Cells were seeded in 24-well plates (2×10^5 cells/well). The next day, the cells were treated with different concentrations of leptomycin B (LMB) or selinexor diluted in DMEM for 1 hour. MYXV was added to the cells and incubated for one hour at 37° C. After 1 hour, the unbound viruses were washed away using DMEM, and DMEM with LMB or selinexor was added to the cells. Cells were harvested in DMEM without LMB or selinexor at the indicated time points. After harvesting the cells, they were stored at −80° C. until processing. Samples were subjected to three freeze/thaw cycles and one-minute sonification to lyse cells and release the viral particles. Afterwards, different dilutions were prepared in DMEM and plated on rabbit RK13 and foci were counted after 48 hours using a fluorescent microscope. All assays and dilutions were performed in triplicate.
# PANC-1 cells = assay: CyQUANT NF cell proliferation assay (PANC-1); format: cell-based, human; conditions: after 24 hours compared to mock treated cells, selinexor 0.1 or 1 μM, multiple MOI
# Procedure: Cell Proliferation Assay: To measure cancer cell proliferation based on the amount of cellular DNA, the CyQuant™ NF Cell Proliferation Assay Kit (Invitrogen) was used according to the manufacturer's instructions. Briefly, PANC-1, HT29, MDA-MB435, and Colo205 cells were seeded in a 96-well plate (1×10^4 cells/well) and left to attach to the wells overnight. The next day, the medium was removed and replaced with 50 μL medium containing different concentrations of selinexor (0-1 μM). After an hour of incubation with selinexor, the virus was added to different MOIs (0.5-5), bringing the end volume of every well up to 100 μL. A 1× dye binding solution was prepared by adding 9 μL of the CyQuant™ NF Dye reagent in 4.5 mL Hank's Balanced Salt Solution (HBSS) buffer (Invitrogen). After 24, 48, 72, and 96 hours of incubation, the medium was removed from the cells and 50 μL 1× dye solution was added to all wells. The microplate was covered to protect it from light and was incubated for 30-60 minutes in a 5% CO2 incubator at 37° C. Subsequently, cell proliferation was quantified by measuring fluorescence with an excitation of 485 nm and emission of 530 nm in a VarioSkan Lux Microplate reader (Thermo Fisher). All experiments were performed in quadruple and normalized to mock-treated cells.
# [1] = test system: PANC-1, Colo205, HT29, and MDMB435 cells; assay: Cell viability assay (MTS); format: cell-based, human
# Procedure: To further assess the inhibition of cell proliferation, and investigate if cell death is enhanced, cell viability assays were performed using an MTS assay to detect metabolic activity in active cells. For this assay, PANC-1 (FIG. 5A through FIG. 5D), Colo205 (FIG. 5E through FIG. 5H), HT29, and MDMB435 cells were treated with different concentrations of selinexor, infected with MYXB at different MOIs, or treated with a combination of selinexor and MYXB, and cell viability was measured at different time points.
# Cell Viability Assay: To assess the viability of different human cancer cells after selinexor treatment or MYXV infection, 10,000 cells were seeded into each well of a 96-well plate. The next day, cells were treated with different concentrations of selinexor, infected with different MOIs of MYXV, or treated with different concentrations of selinexor for 1 hour followed by infection with different MOIs of MYXV. A minimum of four wells were used for each treatment condition, and untreated cells (mock) served as controls. Cell viability was assessed at 24, 48, 72, and 96 hours using an MTS assay.
# PANC-1 xenograft tumors = assay: PANC-1 xenograft tumor model in NSG mice; format: in vivo
# Procedure: Based on the in vivo results showing selinexor enhances MYXV replication in the tumor bed and reduces the tumor burden in Colo205 and HT29 xenograft tumors, the treatment was examined in PANC-1 xenograft tumors. Human PANC-1 cells were injected subcutaneously on both sides of the flank to generate tumors (FIG. 11A). After the tumor size reached ˜50-100 mm^3 (2-3 weeks), animals were randomly assigned to treatment groups to have approximately equal average tumor size. Animals (n=6) were then treated with PBS, selinexor, MYXV, or selinexor+MYXV. Animals received a total of four treatments within the first two weeks and tumor burden was measured 2-3 times every week. After the first treatment, mice were imaged using the IVIS system for luciferase expression at 24 and 72 hours post-treatment (FIG. 11B and FIG. 11C). […] After imaging and measuring luciferase signals, three additional treatments to test their therapeutic effect on tumor burden and survival were administered.
# Luciferase signals in animals were also measured before the endpoint to confirm the presence of the virus in the tumor bed after the final (fourth) injection. […] Luciferase signal was measured again 23 days after the last viral injection, at which point high luciferase activity was still observed in each group (FIG. 13C). At the endpoint, tumors were collected and virus titration assays were performed (FIG. 13D). […] In both tumors, although not significant, viral load was higher in selinexor+MYXV treated mice than mice treated with MYXV alone.
# Animal Studies: Male and female NSG mice were purchased from Jackson laboratory at 6-8 weeks of age. Animals were housed under sterile conditions. The animals were acclimatized for at least seven days before tumor implantation or any experimental procedures. Cells (1×10^6/mouse in 100 μL PBS) were subcutaneously injected into the flanks of NSG mice. […] Tumor volume was measured two or three times per week as follows: volume=(length×width^2)/2. […]
compound,measurement,setting,value
O=C(/C=C\n1cnc(-c2cc(C(F)(F)F)cc(C(F)(F)F)c2)n1)NNc1cnccn1 [selinexor],increase in virus production compared to infection with MYXV alone,MYXV,10-100 fold
same,cell proliferation (DNA content),PANC-1 cells,significant reductions in cell proliferation
same,cell viability,"[1]; selinexor 0.5 μM or 1 μM, over time, all cells tested",50%
same,cell viability,[1]; selinexor alone 0.1 μM or 0.05 μM,no effect on cell viability; also recorded: almost no effect
same,luciferase signals (IVIS) vs virus alone,PANC-1 xenograft tumors; 24 and 72 hours after first treatment,significantly higher levels of luciferase signals
same,tumor burden compared to PBS or MYXV alone,PANC-1 xenograft tumors; four treatments within first two weeks,significant reduction in tumor burden
same,survival compared to PBS or MYXV alone,"PANC-1 xenograft tumors; mouse, in vivo",survived significantly longer
